The text below walks through data of ChEMBL document CHEMBL3272336, “Potential histidine decarboxylase inhibitors. 1. alpha- and beta-substituted histidine analogues” (J Med Chem, 1977).

Activity calls are given as the source filed them. The calls are words filed in the database; no cut-off is given here.

The target in test [1] is T1, Histidine decarboxylase (Rattus norvegicus) (UniProt P16453).
T1 sequence (whole entry): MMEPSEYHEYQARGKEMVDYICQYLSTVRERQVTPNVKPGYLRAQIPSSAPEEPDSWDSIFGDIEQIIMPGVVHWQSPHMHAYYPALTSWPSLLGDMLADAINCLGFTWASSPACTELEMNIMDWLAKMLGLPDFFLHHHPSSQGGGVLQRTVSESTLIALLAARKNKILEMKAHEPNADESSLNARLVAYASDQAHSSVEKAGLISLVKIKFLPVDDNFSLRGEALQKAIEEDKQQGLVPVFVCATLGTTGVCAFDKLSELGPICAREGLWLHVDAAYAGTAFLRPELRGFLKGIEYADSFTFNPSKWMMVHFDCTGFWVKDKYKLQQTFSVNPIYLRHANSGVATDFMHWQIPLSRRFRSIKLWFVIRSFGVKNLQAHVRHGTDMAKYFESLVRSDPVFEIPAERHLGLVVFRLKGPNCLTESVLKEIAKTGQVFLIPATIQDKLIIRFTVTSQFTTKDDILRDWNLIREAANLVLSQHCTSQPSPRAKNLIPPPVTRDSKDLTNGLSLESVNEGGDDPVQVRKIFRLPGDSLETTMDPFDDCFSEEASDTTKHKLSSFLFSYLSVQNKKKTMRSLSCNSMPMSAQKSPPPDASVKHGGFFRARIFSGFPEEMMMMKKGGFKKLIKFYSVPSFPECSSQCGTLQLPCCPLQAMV
Nature of the test: Inhibition of histidine decarboxylase in rat pyloric stomach using [carboxyl-14C]-histidine as substrate at 10^-3 M by 14CO2 trapping assay relative to control. In kind it is tissue-based.

Test [2] deals with T1, Histidine decarboxylase (Rattus norvegicus). Nature of the test: Inhibition of histidine decarboxylase in rat pyloric stomach using [carboxyl-14C]-histidine as substrate at 10^-4 M by 14CO2 trapping assay relative to control. Type of test: tissue-based.

Usually inhibition stands for the relative decrease from the control value, in per cent. In test [1], `NC(CCc1c[nH]cn1)C(=O)O` (configuration not stated) displayed an inhibition of 0%.

Consider `CC(c1c[nH]cn1)[C@H](N)C(=O)O` (some centres not stated), for which the inhibition result in test [2] is “inactive”. In the case of `CC(C)[C@](N)(Cc1c[nH]cn1)C(=O)O`, the inhibition in test [1] was 1%; in test [2], 0%. For `C[C@](N)(Cc1c[nH]cn1)C(=O)O`, in that order: 40% and 30%. In test [1], `CCCC[C@](N)(Cc1c[nH]cn1)C(=O)O` registered an inhibition of 0%. Same read-out and setting: to `CC(C)(c1c[nH]cn1)[C@H](N)C(=O)O` belongs 0%. Turning to `CC[C@](N)(Cc1c[nH]cn1)C(=O)O`, the inhibition in test [1] is 14%; in test [2], 6%.

Turning to `N[C@@]1(Cc2c[nH]cn2)CCOC1=O`, the figures for the inhibition in test [1] and in test [2] were 19% and 12%, respectively.
